Assay results: the supplement of paper PMC10883282

Legend:
Experiment in all cases: relative viability vs DMSO control (72 h) (fraction); higher = more viable cells
[1] = test system: A204
Outline: (§1)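 Densities for seeding sarcoma cell lines into 384-well plates were set to give 80–90% confluence. After 24 h, 2.5 µl of serially diluted compound from source plates of 10 mM to 0.0002 mM went in, and plates stayed 72 h at 37 °C in 5% CO2 with 0.1% DMSO vehicle and a 5 µM positive control. Percent growth from ATPLite readings, averaged over up to triplicate wells, served as relative viability, rescaled so 1 means full and 0 means none.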

[2] = test system: G401
Outline: as §1

[3] = test system: HS729
Outline: as §1

[4] = test system: KHOS-240S
Outline: as §1

[5] = test system: MES-SA
Outline: as §1

[6] = test system: RD
Outline: as §1

[7] = test system: SK-ES-1
Outline: as §1

[8] = test system: SK-LMS-1
Outline: as §1

[9] = test system: SW1353
Outline: as §1

[10] = test system: SW872
Outline: as §1

[11] = test system: SW982
Outline: as §1

[12] = test system: VA-ES-BJ
Outline: as §1

CCc1nc(C(N)=O)c(Nc2ccc(N3CCC(N4CCN(C)CC4)CC3)c(OC)c2)nc1NC1CCOCC1 [Gilteritinib]
Conditions | relative viability
[1], 60 pM | 1.05
[1], 0.00018 µM | 1.01
[1], 0.00053 µM | 1.04
[1], 0.0016 µM | 1.04
[1], 0.0048 µM | 1.02
[1], 0.014 µM | 1.02
[1], 0.043 µM | 1.03
[1], 0.13 µM | 0.943
[1], 0.389 µM | 0.742
[1], 1.167 µM | 0.502
[1], 3.5 µM | 0.385
[2], 60 pM | 1.03
[2], 0.00018 µM | 0.985
[2], 0.00053 µM | 0.968
[2], 0.0016 µM | 0.998
[2], 0.0048 µM | 0.981
[2], 0.014 µM | 0.979
[2], 0.043 µM | 0.971
[2], 0.13 µM | 0.851
[2], 0.389 µM | 0.661
[2], 1.167 µM | 0.478
[2], 3.5 µM | 0.457
[3], 60 pM | 0.9885
[3], 0.00018 µM | 0.928
[3], 0.00053 µM | 0.924
[3], 0.0016 µM | 0.875
[3], 0.0048 µM | 0.828
[3], 0.014 µM | 0.797
[3], 0.043 µM | 0.74
[3], 0.13 µM | 0.63
[3], 0.389 µM | 0.47
[3], 1.167 µM | 0.357
[3], 3.5 µM | 0.322
[4], 60 pM | 1.08
[4], 0.00018 µM | 1.06
[4], 0.00053 µM | 1.08
[4], 0.0016 µM | 1.04
[4], 0.0048 µM | 1.08
[4], 0.014 µM | 1.02
[4], 0.043 µM | 0.985
[4], 0.13 µM | 0.913
[4], 0.389 µM | 0.848
[4], 1.167 µM | 0.509
[4], 3.5 µM | 0.398
[5], 60 pM | 0.954
[5], 0.00018 µM | 0.936
[5], 0.00053 µM | 0.921
[5], 0.0016 µM | 0.922
[5], 0.0048 µM | 0.904
[5], 0.014 µM | 0.947
[5], 0.043 µM | 0.904
[5], 0.13 µM | 0.89
[5], 0.389 µM | 0.76
[5], 1.167 µM | 0.51
[5], 3.5 µM | 0.393
[6], 60 pM | 1.06
[6], 0.00018 µM | 1.06
[6], 0.00053 µM | 1.07
[6], 0.0016 µM | 1.08
[6], 0.0048 µM | 1.08
[6], 0.014 µM | 1.07
[6], 0.043 µM | 1.01
[6], 0.13 µM | 0.829
[6], 0.389 µM | 0.516
[6], 1.167 µM | 0.363
[6], 3.5 µM | 0.32
[7], 60 pM | 0.996
[7], 0.00018 µM | 1.03
[7], 0.00053 µM | 1.07
[7], 0.0016 µM | 1.01
[7], 0.0048 µM | 0.979
[7], 0.014 µM | 0.964
[7], 0.043 µM | 0.932
[7], 0.13 µM | 0.697
[7], 0.389 µM | 0.208
[7], 1.167 µM | 0.112
[7], 3.5 µM | 0.119
[8], 60 pM | 1.03
[8], 0.00018 µM | 1.01
[8], 0.00053 µM | 1.01
[8], 0.0016 µM | 1.03
[8], 0.0048 µM | 0.985
[8], 0.014 µM | 1.018
[8], 0.043 µM | 0.977
[8], 0.13 µM | 0.929
[8], 0.389 µM | 0.765
[8], 1.167 µM | 0.504
[8], 3.5 µM | 0.398
[9], 60 pM | 1.04
[9], 0.00018 µM | 1.04
[9], 0.00053 µM | 1
[9], 0.0016 µM | 1
[9], 0.0048 µM | 0.932
[9], 0.014 µM | 0.955
[9], 0.043 µM | 0.972
[9], 0.13 µM | 0.896
[9], 0.389 µM | 0.779
[9], 1.167 µM | 0.65
[9], 3.5 µM | 0.617
[10], 60 pM | 1.03
[10], 0.00018 µM | 1.01
[10], 0.00053 µM | 1.01
[10], 0.0016 µM | 1.01
[10], 0.0048 µM | 0.98
[10], 0.014 µM | 0.949
[10], 0.043 µM | 0.905
[10], 0.13 µM | 0.787
[10], 0.389 µM | 0.493
[10], 1.167 µM | 0.341
[10], 3.5 µM | 0.305
[11], 60 pM | 0.9618
[11], 0.00018 µM | 0.996
[11], 0.00053 µM | 0.978
[11], 0.0016 µM | 0.967
[11], 0.0048 µM | 0.988
[11], 0.014 µM | 0.947
[11], 0.043 µM | 0.945
[11], 0.13 µM | 0.612
[11], 0.389 µM | 0.277
[11], 1.167 µM | 0.195
[11], 3.5 µM | 0.2
[12], 60 pM | 0.988
[12], 0.00018 µM | 0.986
[12], 0.00053 µM | 0.993
[12], 0.0016 µM | 1.02
[12], 0.0048 µM | 1
[12], 0.014 µM | 0.997
[12], 0.043 µM | 1.04
[12], 0.13 µM | 0.937
[12], 0.389 µM | 0.713
[12], 1.167 µM | 0.433
[12], 3.5 µM | 0.3
